Source: ChEMBL document CHEMBL1131348, “Pyrazolo[1,5-a]pyrimidine CRF-1 receptor antagonists” (Bioorg Med Chem Lett, 1998)

Target: T1, Corticotropin-releasing factor receptor 1 (Homo sapiens, UniProt P34998)
T1 sequence (P34998 whole entry): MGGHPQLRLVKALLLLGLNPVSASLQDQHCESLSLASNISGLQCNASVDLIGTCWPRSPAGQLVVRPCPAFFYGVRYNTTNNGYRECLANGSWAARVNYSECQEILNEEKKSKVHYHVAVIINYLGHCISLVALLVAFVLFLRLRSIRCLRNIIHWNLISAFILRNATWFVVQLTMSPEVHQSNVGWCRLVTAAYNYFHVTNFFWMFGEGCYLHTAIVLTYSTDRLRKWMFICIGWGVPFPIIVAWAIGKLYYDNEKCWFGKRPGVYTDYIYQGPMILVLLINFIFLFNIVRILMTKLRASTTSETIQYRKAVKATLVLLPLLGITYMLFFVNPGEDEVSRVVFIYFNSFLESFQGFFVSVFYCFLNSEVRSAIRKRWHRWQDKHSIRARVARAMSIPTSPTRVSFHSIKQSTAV
Assay: Displacement of [125I]0-CRF from human Corticotropin releasing factor receptor 1 expressed in CHO cells
Type: cell-based

Structure (SMILES)	Ki
CCCCNc1cc(C)nc2c(-c3ccc(Cl)cc3Cl)c(C)nn12	69 nM
Cc1cc(N2CCCCC2)n2nc(C)c(-c3ccc(Cl)cc3Cl)c2n1	41 nM
CCCCN(CC)c1cc(C)nc2c(-c3ccc(Cl)cc3Cl)cnn12	40 nM
CCCC1CCCCN1c1cc(C)nc2c(-c3ccc(Cl)cc3Cl)c(C)nn12 (centres undefined)	6.4 nM
CCCN(CC1CC1)c1cc(C)nc2c(-c3ccc(Cl)cc3Cl)c(C)nn12	3.2 nM
CCCCN(CC)c1cc(C)nc2c(-c3ccccc3)c(C)nn12	511 nM
Cc1cc(N2CCOCC2)n2nc(C)c(-c3ccc(Cl)cc3Cl)c2n1	310 nM
CCCCN(OC)c1cc(C)nc2c(-c3ccc(Cl)cc3Cl)c(C)nn12	216 nM
CCCCN(CC)c1nc(C)nc2c1c(C)cn2-c1c(C)cc(C)cc1C [CP-154526]	56 nM

The remaining lines, values ahead:

Ki	Structure (SMILES)
5 nM	CCCCN(CC)c1cc(C)nc2c(-c3ccc(Cl)cc3Cl)c(C)nn12
15 nM	CCCCN(CC)c1cc(C)nc2c(-c3ccccc3Cl)c(C)nn12
11 nM	CCN(CCOC)c1cc(C)nc2c(-c3ccc(Cl)cc3Cl)c(C)nn12
77 nM	CCCCN(CC)c1cc(C)nc2c(-c3ccc(Cl)cc3)c(C)nn12
93 nM	CCCCN(CC)c1cc(C)nc2c(-c3c(Cl)cc(Cl)cc3Cl)c(C)nn12
